Patent publication US20080125432A1 (Devgen NV, priority 2004, published 2008)
Like-named read-outs stand apart in the source and are kept apart here.

Legend:
human Kv4.3 = molecular target: T1, human Kv4.3 (Homo sapiens, UniProt Q9UK17); assay: C. elegans based high-throughput screen for Kv4.3 modulators (pharynx pumping, Calcein AM uptake), transgenic strain UG1755; assay type: in vivo; settings: for Ratio N2/Kv4.3: EC50 on N2 divided by EC50 on the Kv4.3 expressing strain, cut-off 1.8; for EC50: transgenic strain UG1755 expressing human Kv4.3, read-out: EC50 (μM) Kv4.3 worm
T1 construct: expressed in transfected cells; host or cells: transgenic C. elegans strain UG1755 (N2 injected with plasmid pGV8, integrated array)
T1 sequence (Q9UK17 1-655): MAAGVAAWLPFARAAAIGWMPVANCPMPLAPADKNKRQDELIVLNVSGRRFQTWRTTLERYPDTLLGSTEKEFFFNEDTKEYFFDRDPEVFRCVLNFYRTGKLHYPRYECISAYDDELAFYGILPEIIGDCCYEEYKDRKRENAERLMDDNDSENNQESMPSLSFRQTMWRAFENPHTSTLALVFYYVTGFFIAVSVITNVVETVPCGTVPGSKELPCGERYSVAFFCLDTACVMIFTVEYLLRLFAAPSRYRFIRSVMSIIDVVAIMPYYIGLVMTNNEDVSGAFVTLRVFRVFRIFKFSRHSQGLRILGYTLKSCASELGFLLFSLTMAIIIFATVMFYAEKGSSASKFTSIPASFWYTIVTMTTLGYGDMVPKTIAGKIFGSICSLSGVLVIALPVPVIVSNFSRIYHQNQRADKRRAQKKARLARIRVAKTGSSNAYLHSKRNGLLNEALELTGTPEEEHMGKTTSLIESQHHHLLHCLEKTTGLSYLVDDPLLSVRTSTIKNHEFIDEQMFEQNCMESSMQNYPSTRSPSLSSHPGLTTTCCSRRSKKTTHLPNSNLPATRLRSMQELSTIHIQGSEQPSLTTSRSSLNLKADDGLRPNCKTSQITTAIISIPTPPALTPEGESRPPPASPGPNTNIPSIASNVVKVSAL
Description: A C. elegans based high-throughput screen for Kv4.3 modulators has been used to establish an in vivo SAR (structure-activity relationships: the effect of chemical structure on biological activity) on Kv4.3 for the compounds according to the present invention.
This assay has employed a stable transgenic C. elegans strain that functionally expressed human Kv4.3 in the pharynx and a visible selection GFP maker in body-wall muscle.
The pharynx is the feeding organ of C. elegans and contracts rhythmically 3-4 times per second. The pharynx contraction is controlled by the nervous system via action potentials similar to the human myocyte and can thus be used to study human ion channel physiology in vivo in C. elegans.
Introducing the human Kv4.3 channel into the C. elegans pharynx influences the C. elegans action potential in a characteristic fashion. The additional number of potassium channels increases potassium ion efflux, enhances re-polarization and thereby shortens the action potential duration. […] The shortened action potentials of the C. elegans pharynx resulting from expression of human Kv4.3, changes the pharynx contraction-relaxation cycle and consequently reduces the pumping/feeding in these transgenic animals. This change of pumping is an end-point amenable to high-throughput screening technology. The pumping end-point can be technically translated into a high-throughput read-out by the use of a pro-fluorescent dye. The pro-fluorescent dye is taken up by C. elegans depending on its pumping activity and converted into a fluorescent dye by enzymes located in its intestines. After a defined incubation period, the change of fluorescence intensity in the intestine can be measured with a plate reader.
(§1) The screening of the compounds according to the present invention has been performed in the C. elegans based high-throughput screen for Kv4.3 modulators described above. The method for testing the activity on human Kv4.3 of the compounds according to the invention with C. elegans strains expressing human Kv4.3 for their activity is the same as the method described in WO 03/097682. The method for testing the compounds on wild-type C. elegans strains not expressing human Kv4.3 is the same as the method described in WO 00/63427. Briefly, UG1755 animals have been grown in large numbers and staged young adults (no or only few eggs inside the uterus) have been harvested on the day of screening. Approximately 125 animals in 80 μl buffer have been dispensed per well of a “U shaped 96-well compound plate The compound plate contained already compound material at a final concentration of 30 μM in 0.3% DMSO. After one hour incubation 10 μl of the fluorescent label Calcein AM (CAM) have been added to achieve a final concentration of 5 μM CAM and 0.8% DMSO. After another four hours of incubation at 20° C., the drinking of C. elegans animals (or the “reaction 8 measured by the uptake of CAM) has been stopped by adding 10 μl of a 60 μM ivermectin solution. The fluorescence intensity (counts per second) has been measured 40 minutes after adding ivermectin with the Wallac plate reader at a wavelength of 535 nm (after excitation at 485 nm).
The active compounds have been identified and confirmed by dose-response analysis. An EC50 has been calculated and the results are listed under Table 3. Dose-response curves have been obtained at concentrations of 30 μM. EC50 has been calculated using XLfit 2.09 software package.

[1] = test system: C. elegans wild-type strain N2; assay: Same C. elegans pumping assay format using wild-type strain N2; assay type: in vivo; settings: read-out: EC50 (μM) Wild type worm N2
Description: as §1
These compounds have been also tested in the same assay format using a C. elegans wild-type strain N2 and the corresponding EC50 has been calculated. The ratio of the EC50s obtained for a compound on the two strains (transgenic expressing human Kv4.3 and wild-type) gives an indication on whether said compound is acting on human Kv4.3. […]

[2] = molecular target: T2, human Kv4.3/KChIP2.2 potassium channel (Homo sapiens, UniProt Q9UK17); assay: Whole cell patch clamp, CHO-K1 cells stably expressing human Kv4.3/KChIP2.2; assay type: cell-based; settings: Kv4.3 mediated current, charge; patch clamp; read-out: Kv4.3 charge IC50
T2 construct: expressed in transfected cells
T2 sequence (Q9UK17 1-655): T1 sequence (Q9UK17 1-655)

Compound | Ratio N2/Kv4.3 (human Kv4.3) | EC50 (human Kv4.3) | EC50 ([1]; Caenorhabditis elegans) | EC50 [1] | IC50 [2]
Cc1cccc(C)c1Nc1nc(C(=O)N[C@H](C)c2ccc([N+](=O)[O-])cc2)cs1 [Compound 43, 2-(2,6-dimethyl-phenylamino)-thiazole-4-carboxylic acid (R)-1-(4-nitro-phenyl)ethyl amide] | 1.8 | 18.9 µM | 35 µM | – | –
O=C(N[C@H]1CCCC[C@@H]1OCc1ccccc1)c1csc(Nc2ccc(Cl)cc2)n1 [Compound 41, 2-(4-chloro-phenylamino)-thiazole-4-carboxylic acid (1S,2S)-2-(benzyloxycyclohex-1-yl) amide] | 2.2 | 22 µM | – | 48 µM | –
2-(4-bromo-phenylamino)-4-methyl-thiazole-5-carboxylic acid (1R,2R)-2-(benzyloxycyclopent-1-yl) amide [Compound 25] | >25 | 10.3 µM | – | > 30 µM | 1.32 µM
O=C(N[C@@H]1CCCC[C@H]1OCc1ccccc1)c1csc(Nc2ccc(F)cc2)n1 [Compound 38, 2-(4-fluoro-phenylamino)-thiazole-4-carboxylic acid (1R,2R)-2-(benzyloxycyclohex-1-yl) amide] | 2.5 | 17.3 µM | 44 µM | – | –
CCCN(Cc1ccc([N+](=O)[O-])cc1)C(=O)c1csc(Nc2ccc(Cl)cc2)n1 [Compound 42, 2-(4-chloro-phenylamino)-thiazole-4-carboxylic acid (4-nitro-benzyl)-propyl-amide] | 2.0 | 21.4 µM | 43 µM | – | –
C[C@@H](NC(=O)c1csc(Nc2ccc(F)cc2)n1)c1ccc([N+](=O)[O-])cc1 [Compound 36, 2-(4-fluoro-phenylamino)-thiazole-4-carboxylic acid (R)-1-(4-nitro-phenyl)ethyl amide] | 2.0 | 22.7 µM | 45 µM | – | –
COc1ccc(Cl)cc1Nc1nc(C(=O)N[C@@H]2CCCC[C@H]2OCc2ccccc2)cs1 [Compound 51, 2-(5-chloro-2-methoxy-phenylamino)-thiazole-4-carboxylic acid (1R,2R)-2-(benzyloxycyclohex-1-yl) amide] | >1.8 | 17 µM | > 30 µM | – | –
Cc1nc(Nc2ccc(Br)cc2)sc1C(=O)NCc1cc(C(F)(F)F)cc(C(F)(F)F)c1 [Compound 24, 2-(4-bromo-phenylamino)-4-methyl-thiazole-5-carboxylic acid 3,5-bis-trifluoromethyl-benzylamide] | >1.7 | 17.1 µM | > 30 µM | – | –
Cc1cc(C)cc(Nc2nc(C(=O)N[C@H]3CCCC[C@@H]3OCc3ccccc3)cs2)c1 [Compound 46, 2-(3,5-dimethyl-phenylamino)-thiazole-4-carboxylic acid (1S,2S)-2-(benzyloxycyclohex-1-yl) amide] | 2.8 | 14 µM | 39 µM | – | –
Cc1nc(Nc2ccc(Br)cc2)sc1C(=O)NCc1ccc([N+](=O)[O-])cc1 [Compound 23, 2-(4-bromo-phenylamino)-4-methyl-thiazole-5-carboxylic acid 4-nitro-benzylamide] | 2.8 | 14.6 µM | 41 µM | – | 0.55 µM
Cc1nc(Nc2ccc(Br)cc2)sc1C(=O)NCc1ccccc1 [Compound 20, 2-(4-bromo-phenylamino)-4-methyl-thiazole-5-carboxylic acid benzylamide] | >2.3 | 25 µM | > 60 µM | – | 1.72 µM

Results, then the compound that gave them:

Ratio N2/Kv4.3 (human Kv4.3) | EC50 (human Kv4.3) | EC50 ([1]; Caenorhabditis elegans) | EC50 [1] | IC50 [2] | Compound
3.8 | 6 µM | 23 µM | – | – | O=C(N[C@@H]1CCC[C@H]1OCc1ccccc1)c1csc(Nc2ccc(F)cc2)n1 [Compound 37, 2-(4-fluoro-phenylamino)-thiazole-4-carboxylic acid (1R,2R)-2-(benzyloxycyclopent-1-yl) amide]
2.4 | 10.1 µM | 24 µM | – | – | Cc1nc(Nc2ccc(F)cc2)sc1C(=O)N[C@@H](C)c1ccc2ccccc2c1 [Compound 15, 2-(4-fluoro-phenylamino)-4-methyl-thiazole-5-carboxylic acid (S)-1-(naphthalen-2-yl)ethyl amide]
14.9 | 2 µM | 29.8 µM | – | 2.47 µM | O=C(N[C@@H]1CCC[C@H]1OCc1ccccc1)c1csc(Nc2ccccc2)n1 [Compound 48, 2-phenylaminothiazole-4-carboxylic acid (1R,2R)-2-(benzyloxycyclopent-1-yl) amide]
>2.6 | 11.7 µM | > 30 µM | – | – | Cc1nc(Nc2ccc(Br)cc2)sc1C(=O)N[C@H](C)c1ccc([N+](=O)[O-])cc1 [Compound 22, 2-(4-bromo-phenylamino)-4-methyl-thiazole-5-carboxylic acid (R)-1-(4-nitrophenyl)ethyl amide]
>2.5 | 12.1 µM | – | > 30 µM | 3.46 µM | O=C(N[C@@H]1CCC[C@H]1OCc1ccccc1)c1csc(Nc2ccc(Cl)cc2)n1 [Compound 40, 2-(4-chloro-phenylamino)-thiazole-4-carboxylic acid (1R,2R)-2-(benzyloxycyclopent-1-yl) amide]
3.5 | 11.5 µM | 39.5 µM | – | – | COC[C@H](Cc1ccccc1)NC(=O)c1csc(Nc2cc(C)cc(C)c2)n1 [Compound 44, 2-(3,5-dimethyl-phenylamino)-thiazole-4-carboxylic acid (S)-(1-methoxymethyl-2-phenyl-ethyl)-amide]
28.0 | 1.3 µM | 37 µM | – | – | Cc1cc(C)cc(Nc2nc(C(=O)N[C@@H]3CCC[C@H]3OCc3ccccc3)cs2)c1 [Compound 45, 2-(3,5-dimethyl-phenylamino)-thiazole-4-carboxylic acid (1R,2R)-2-(benzyloxycyclopent-1-yl)-amide]
